How the values were obtained:
[1] = system: participants with chronic heart failure with reduced ejection fraction; test: Phase 2b open-label clinical study of tolerability and safety of a 5 mg initiation dose of vericiguat (NCT06195930)
Procedure: A Phase 2b open-label clinical study to evaluate the tolerability and safety of an initiation dose of 5 mg of Vericiguat in participants with chronic heart failure with reduced ejection fraction.
The patients had symptomatic chronic heart failure with reduced ejection fraction (HFrEF). […] Participants underwent a screening visit to assess eligibility. Eligible participants waited a mandatory 2 weeks before returning for Visit 1 in order to be clinically and hemodynamically stable. At Visit 1 (V1), participants received vericiguat with directions to take a 5 mg tablet once daily for 2 weeks. Participants returned for Visit 2 (V2) after 2 weeks of treatment. There were unplanned healthcare visits for heart failure between Visits 1 and 2 at the discretion of the investigator.
Primary objective was to evaluate the tolerability of 5 mg as a starting dose of vericiguat. Endpoint: Treatment tolerability, defined as the completion of the two-week 5 mg dose without discontinuation of study intervention and without moderate to severe symptomatic hypotension between Visit 1 (V1) and Visit 2 (V2) Secondary objective 1 was to describe safety events of initiation of 5 mg dose. Endpoints: Any adverse event reported between V1 and V2. Absence of adverse events related to study intervention between V1 and V2.
Secondary objective 2 was to further evaluate the tolerability of 5 mg as a starting dose of vericiguat. Endpoint: Continuous intake of study intervention between V1 and V2 or restart of study intervention after any temporary interruption.
Dose changes in GDMT medications (RAS blockade, Beta-blocker, MRA, or SGLT2i) or oral diuretics for 2 weeks were discouraged, except when mandated by known side-effects for individual drug classes (e.g., hyperkalemia for MRA or angioedema for ACE-inhibitors/ARNI). Use of short and long-acting nitrates was permitted.
On Days 1-14, 5.0 mg Verquvo® vericiguat was administered orally once daily. The endpoint was tolerability based on need for treatment interruption between Days 1 and Day 14.

[2] = some patients receiving vericiguat in clinical trials; cited from earlier work
[3] = 106 started treatment, 5 mg once daily for 2 weeks

COC(=O)Nc1c(N)nc(-c2nn(Cc3ccccc3F)c3ncc(F)cc23)nc1N [Vericiguat, methyl {4,6-diamino-2-[5-fluoro-1-(2-fluorobenzyl)-1H-pyrazolo[3,4-b]pyridin-3-yl]pyrimidin-5-yl}carbamate]
Difference between participants with and without recent worsening heart failure events in meeting primary and secondary endpoints ([1]; 5 mg dose, 2 weeks): no major differences
Primary endpoint: participants who completed the 2-week treatment period without moderate to severe symptomatic hypotension and without temporary treatment interruptions exceeding 1 day ([1]; 5 mg dose, 2 weeks): 93.4%
Secondary endpoint 1: participants who completed the 2-week treatment period without reported intervention-related adverse events ([1]; 5 mg dose, 2 weeks): 90.6%
Secondary endpoint 2: participants who completed treatment with continuous intervention intake or restarted study intervention after a temporary interruption ([1]; 5 mg dose, 2 weeks): 96.2%
patients who continued through the 14-day titration without a medical need for interruption ([1]; 5.0 mg orally once daily, Days 1-14): at least 90%
TREATMENT phase: Completed [1, 3]: 102 (96.2%) Number of participants (%)
TREATMENT phase: Did not complete [1, 3]: 4 (3.8%) Number of participants (%)
Tolerability of initiating treatment at 5 mg (in words) ([1]; HFrEF population with and without recent worsening heart failure events, on current GDMT): well tolerated
discontinuations for AE ([1]; OVERALL N = 106, SAF, 5 mg once daily, two weeks): 4 discontinuations
Any AE ([1]; SAF N = 106, 5 mg): 14 (13.2%) Number (%) of participants
Any AE leading to discontinuation of intervention ([1]; SAF N = 106, 5 mg): 4 (3.8%) Number (%) of participants
Any AE leading to dose modification of study intervention (delays, interruptions and reductions) ([1]; SAF N = 106, 5 mg): 6 (5.7%) Number (%) of participants
Any AE of special interest ([1]; SAF N = 106, 5 mg): 6 (5.7%) Number (%) of participants
Any AE related to procedures required by the protocol ([1]; SAF N = 106, 5 mg): 0 Number (%) of participants
Any SAE ([1]; SAF N = 106, 5 mg): 1 (0.9%) Number (%) of participants
Any SAE leading to discontinuation of intervention ([1]; SAF N = 106, 5 mg): 0 Number (%) of participants
Any SAE related to procedures required by the protocol ([1]; SAF N = 106, 5 mg): 0 Number (%) of participants
Any intervention-related AE ([1]; SAF N = 106, 5 mg): 10 (9.4%) Number (%) of participants
Any intervention-related SAE ([1]; SAF N = 106, 5 mg): 0 Number (%) of participants
Life-threatening SAE ([1]; SAF N = 106, 5 mg): 0 Number (%) of participants
Maximum intensity for any AE: MILD ([1]; SAF N = 106, 5 mg): 9 (8.5%) Number (%) of participants
Maximum intensity for any AE: MODERATE ([1]; SAF N = 106, 5 mg): 4 (3.8%) Number (%) of participants
Maximum intensity for any AE: SEVERE ([1]; SAF N = 106, 5 mg): 1 (0.9%) Number (%) of participants
Maximum intensity for intervention-related AEs: MILD ([1]; SAF N = 106, 5 mg): 8 (7.5%) Number (%) of participants
Maximum intensity for intervention-related AEs: MODERATE ([1]; SAF N = 106, 5 mg): 2 (1.9%) Number (%) of participants
Participants with total duration of interruption/delay of 0 days ([1]; SAF N = 106, 5 mg): 102 (96.2%) n (%)
Participants with total duration of interruption/delay of 1 day ([1]; SAF N = 106, 5 mg): 1 (0.9%) n (%)
Participants with total duration of interruption/delay of 2 days ([1]; SAF N = 106, 5 mg): 3 (2.8%) n (%)
SAE requiring hospitalization ([1]; SAF N = 106, 5 mg): 1 (0.9%) Number (%) of participants
SAE resulting in substantial disruption of normal life functions ([1]; SAF N = 106, 5 mg): 0 Number (%) of participants
SAE with fatal outcome ([1]; SAF N = 106, 5 mg): 0 Number (%) of participants
SAE: Congenital anomaly or birth defect ([1]; SAF N = 106, 5 mg): 0 Number (%) of participants
SAE: Other ([1]; SAF N = 106, 5 mg): 0 Number (%) of participants
Total Duration of Interruption/Delay, Max ([1]; SAF N = 106, 5 mg): 2 days
Total Duration of Interruption/Delay, Mean (SD) ([1]; SAF N = 106, 5 mg): 0.1 (0.3) ^ days
Total Duration of Interruption/Delay, Median ([1]; SAF N = 106, 5 mg): 0.0 days
Total Duration of Interruption/Delay, Min ([1]; SAF N = 106, 5 mg): 0 days
TREATMENT phase: Did not complete, primary reason ADVERSE EVENT ([1]; percentage of the participants who did not complete): 4 (100.0%) Number of participants (%)
Effect on systolic blood pressure compared with placebo [2]: reduction of systolic blood pressure

From US20250205235A1, “DOSE REGIMEN FOR VERICIGUAT” (ADVERIO PHARMA GMBH, priority 2023, published 2025)
